Converted amounts (≈) assume the structure as drawn.
Experiments:
Format in all cases: functional
Enterococcus faecalis [1] = assay: In vitro inhibitory activity against Enterococcus faecalis ATCC 29212
Pseudomonas aeruginosa [2] = assay: In vitro inhibitory activity against Pseudomonas aeruginosa ATCC 27853
Escherichia coli [3] = assay: In vitro inhibitory activity against Escherichia coli ATCC 25922
Pseudomonas aeruginosa [4] = assay: In vitro inhibitory activity against Pseudomonas aeruginosa ATCC 35151
Staphylococcus aureus [5] = assay: In vitro inhibitory activity against Staphylococcus aureus MRSA 33591
Pseudomonas aeruginosa [6] = assay: In vitro inhibitory activity against Pseudomonas aeruginosa PAO-1
Staphylococcus aureus [7] = assay: In vitro inhibitory activity against Staphylococcus aureus ATCC 29213
Enterococcus faecalis [8] = assay: In vitro inhibitory activity against Enterococcus faecalis ATCC 29212; Value ranges from 8-32 ug/mL
Escherichia coli [9] = assay: In vitro inhibitory activity against Escherichia coli ATCC 25922; Value ranges from 0.25-1 ug/mL
[10] = Enterococcus faecalis, ATCC 29212, read-out: MIC
[11] = Pseudomonas aeruginosa, ATCC 27853, read-out: MIC
[12] = Escherichia coli, ATCC 25922, read-out: MIC
[13] = Pseudomonas aeruginosa, ATCC 35151, read-out: MIC
[14] = Pseudomonas aeruginosa, read-out: MIC
[15] = Staphylococcus aureus, ATCC 29213, read-out: MIC

Row | Compound | MIC (Enterococcus faecalis [1]; [10]) [µg/mL] | MIC (Pseudomonas aeruginosa [2]; [11]) [µg/mL] | MIC (Escherichia coli [3]; [12]) [µg/mL] | MIC (Pseudomonas aeruginosa [4]; [13]) [µg/mL] | MIC (Staphylococcus aureus [5]) [µg/mL] | MIC (Pseudomonas aeruginosa [6]; [14]) [µg/mL] | MIC (Staphylococcus aureus [7]; [15]) [µg/mL] | MIC (Pseudomonas aeruginosa [2]) [µg/mL] | MIC (Escherichia coli [3]) [µg/mL] | MIC (Staphylococcus aureus [7]) [µg/mL] | MIC (Enterococcus faecalis [1]) [µg/mL] | MIC (Pseudomonas aeruginosa [4]) [µg/mL] | MIC (Pseudomonas aeruginosa [6]) [µg/mL] | MIC (Enterococcus faecalis [8]) [µg/mL] | MIC (Escherichia coli [9]) [µg/mL]
1 | NCC1OC(OC2C(N)CC(N)C(OC3OC(CN)C(O)C(O)C3N)C2O)C(N)CC1O (centres undefined) | > 64 | 16 (≈ 34.3 µM) | 32 (≈ 68.6 µM) | 16 (≈ 34.3 µM) | > 64 | 8 (≈ 17.1 µM) | 8 (≈ 17.1 µM) | – | – | – | – | – | – | – | –
2 | NCC1OC(OC2C(N)CC(N)C(OC3OCC(O)C(N)C3O)C2O)C(N)CC1O (stereo in doubt; 8u) | – | – | – | – | – | – | – | 2 (≈ 4.57 µM) | 2 (≈ 4.57 µM) | 2 (≈ 4.57 µM) | – | – | – | – | –
3 | NCC1OC(OC2C(N)CC(N)C(OC3OCC(O)C(N)C3O)C2O)C(N)CC1O (stereo in doubt; 8v) | > 64 | – | – | – | > 64 | – | – | >64 | >64 | 32 (≈ 73.1 µM) | – | – | – | – | –
4 | NC[C@H]1O[C@H](O[C@H]2[C@H](O)[C@@H](O[C@H]3O[C@H](CO)[C@@H](O)[C@H](N)[C@H]3O)[C@H](N)C[C@@H]2N)[C@H](N)C[C@@H]1O [TOBRAMYCIN] | – | 0.5 (≈ 1.07 µM) | – | 0.5 (≈ 1.07 µM) | > 64 | 0.5 (≈ 1.07 µM) | 0.5 (≈ 1.07 µM) | – | – | – | – | – | – | > 32 | > 1
5 | CC1CC(N(C)C)C(O)C(OC2C(N)CC(N)C(OC3OC(CN)C(O)CC3N)C2O)O1 (centres undefined) | > 64 | > 64 | 16 (≈ 34.5 µM) | 32 (≈ 69 µM) | > 64 | 64 (≈ 138 µM) | 32 (≈ 69 µM) | – | – | – | – | – | – | – | –
6 | NCC1OC(OC2C(N)CC(N)C(OC3OC(CO)C(O)C(N)C3N)C2O)C(N)CC1O (stereo in doubt; form 1) | – | – | – | 1 (≈ 2.14 µM) | – | 1 (≈ 2.14 µM) | – | 2 (≈ 4.29 µM) | – | 1 (≈ 2.14 µM) | 32 (≈ 68.6 µM) | – | – | – | –
7 | CC1OC(OC2C(N)CC(N)C(OC3OC(CN)C(O)CC3N)C2O)C(N)C(O)C1O (centres undefined) | > 64 | > 64 | > 64 | – | > 64 | – | > 64 | – | – | – | – | – | – | – | –
8 | NCC1OC(OC2C(N)CC(N)C(OC3OC(CO)C(N)C(O)C3N)C2O)C(N)CC1O (stereo in doubt; form 1) | – | – | – | – | – | – | – | 32 (≈ 68.6 µM) | 32 (≈ 68.6 µM) | 8 (≈ 17.1 µM) | >64 | 16 (≈ 34.3 µM) | 16 (≈ 34.3 µM) | – | –
9 | NCC1OC(OC2C(N)CC(N)C(OC3OCC(O)C(O)C3O)C2O)C(N)CC1O (centres undefined) | > 64 | > 64 | > 64 | > 64 | > 64 | > 64 | > 64 | – | – | – | – | – | – | – | –
10 | NCC1OC(OC2C(N)CC(N)C(OC3OC(CO)C(N)C(O)C3N)C2O)C(N)CC1O (stereo in doubt; form 2) | 32 (≈ 68.6 µM) | – | – | – | > 64 | – | – | 2 (≈ 4.29 µM) | 2 (≈ 4.29 µM) | 1 (≈ 2.14 µM) | – | 1 (≈ 2.14 µM) | 1 (≈ 2.14 µM) | – | –
11 | NCC1OC(OC2C(N)CC(N)C(OC3OCC(O)C(O)C3N)C2O)C(N)CC1O (centres undefined) | > 64 | 16 (≈ 36.6 µM) | 8 (≈ 18.3 µM) | – | > 64 | – | 16 (≈ 36.6 µM) | – | – | – | – | – | – | – | –

Further lines, with some results ahead:

Row | MIC (Enterococcus faecalis [1]; [10]) [µg/mL] | MIC (Pseudomonas aeruginosa [2]; [11]) [µg/mL] | MIC (Escherichia coli [3]; [12]) [µg/mL] | MIC (Pseudomonas aeruginosa [4]; [13]) [µg/mL] | MIC (Staphylococcus aureus [5]) [µg/mL] | MIC (Pseudomonas aeruginosa [6]; [14]) [µg/mL] | MIC (Staphylococcus aureus [7]; [15]) [µg/mL] | MIC (Pseudomonas aeruginosa [2]) [µg/mL] | MIC (Escherichia coli [3]) [µg/mL] | MIC (Staphylococcus aureus [7]) [µg/mL] | MIC (Enterococcus faecalis [1]) [µg/mL] | MIC (Pseudomonas aeruginosa [4]) [µg/mL] | MIC (Pseudomonas aeruginosa [6]) [µg/mL] | Compound | MIC (Enterococcus faecalis [8]) [µg/mL] | MIC (Escherichia coli [9]) [µg/mL]
12 | > 64 | > 64 | > 64 | > 64 | > 64 | > 64 | > 64 | – | – | – | – | – | – | CC1OC(OC2C(N)CC(N)C(OC3OC(CN)C(O)CC3N)C2O)C(O)C(O)C1O (centres undefined) | – | –
13 | > 64 | – | – | – | > 64 | – | – | >64 | – | 32 (≈ 68.6 µM) | – | >64 | >64 | NCC1OC(OC2C(N)CC(N)C(OC3OC(CO)C(N)C(N)C3O)C2O)C(N)CC1O (stereo in doubt; form 1) | – | –
14 | – | – | – | – | – | – | – | 2 (≈ 4.29 µM) | – | 1 (≈ 2.14 µM) | 64 (≈ 137 µM) | 1 (≈ 2.14 µM) | 2 (≈ 4.29 µM) | NCC1OC(OC2C(N)CC(N)C(OC3OC(CO)C(N)C(N)C3O)C2O)C(N)CC1O (stereo in doubt; form 2) | – | –
15 | > 64 | – | > 64 | – | > 64 | – | – | >64 | – | 64 (≈ 137 µM) | – | – | – | NCC1OC(OC2C(N)CC(N)C(OC3OC(CO)C(O)C(N)C3N)C2O)C(N)CC1O (stereo in doubt; form 2) | – | –
16 | > 64 | 16 (≈ 34.2 µM) | 32 (≈ 68.3 µM) | 16 (≈ 34.2 µM) | > 64 | 8 (≈ 17.1 µM) | 32 (≈ 68.3 µM) | – | – | – | – | – | – | NC[C@@H]1O[C@H](O[C@H]2[C@H](O)[C@H](O[C@H]3O[C@@H](CO)[C@@H](O)[C@H](O)[C@@H]3O)[C@H](N)C[C@H]2N)[C@@H](N)C[C@@H]1O | – | –

From ChEMBL document CHEMBL1146802, “Glyco-optimization of aminoglycosides: new aminoglycosides as novel anti-infective agents” (2004)
